According to US20130129656A1, “"GREEN" DIESTER AMINES AND PERSONAL CARE PRODUCTS” (CRODA, INC., priority 2010, published 2013):

Assays:
[1] = Warehouse storage stability of flaked samples in a stability oven at 95° F; assay type: physicochemical; conditions: flaked sample, stability oven set at 95° F, after 8 weeks
Description: The diester compositions may be blended with, for example, alkylamidopropyl dimethylamines, such as Incromine BD supplied by Croda Inc., to yield a waxy flakeable or pastillatable composition with improved high temperature warehouse storage stability. Stability in this case being defined as resistance of the waxy particles from fusing together at elevated warehouse storage temperatures of about 95° F. Additional information on flakeability/pastillatability can be found in U.S. Pat. No. 6,638,497, the disclosure of which is hereby incorporated by reference herein.
In some embodiments, it is desirable that the diesters of the claimed invention be either liquids or waxy solids in pastille form at room temperature for ease of use. […] By adding behenamidopropydimethylamine, the high temperature storage stability of the diester was increased, allowing for it to be warehoused or transported in conditions were the temperature can exceed 95° F. without the pastilles fusing together.

[2] = tested on: daphnia magna; experiment: Aquatic toxicity via method OECD 202 (Daphnia sp. Acute Immobilization Test); assay type: in vivo; conditions: OECD 202, daphnia magna
Description: In some embodiments, the compounds of the present invention are believed to have low aquatic toxicities. […] […] The testing methodology is described in “OECD Guideline for Testing of Chemicals,” section 202, the disclosure of which is incorporated by reference.
(§1) Quat from example 3 was tested for biodegradability via method OECD 301B and Aquatic Toxicity via method OECD 202.

[3] = Biodegradability via method OECD 301B; conditions: after 29 days
Excerpt: In some embodiments, the compounds of the present invention are biodegradable as provided by standardized OECD 301B testing. The testing methodology is described in the “OECD Guideline for Testing Chemicals,” section 301, the disclosure of which is incorporated by reference. Specifically, the compounds of the present invention showing a biodegradability of at least about 50% according to the OECD 301B testing method. In some embodiments, the compounds of the present invention have a biodegradability of between about 50% to about 81% according to the OECD 301B testing method.
as §1

[4] = Wet combing evaluation of lotions (combing force reduction)
Description: Lotions with and without Example 3 Quat were prepared and evaluated for combing force reduction.

[5] = wet combing, lotion with 1.5 % Example 3 Quat, average of 10 tresses

## Methosulfate QUAT of PPG-6 N-Methyldiethanolamine Di-Behenate [Example 3]
[1]
  Warehouse storage stability (state of flakes): fused together
[2]
  48 hour EC50 (aquatic toxicity): > 100 µg/mL
[3]
  Biodegraded: 67%
[4]; lotion with the quat, versus lotion without
  Conditioning (in words): improved conditioning
[4]; [5]
  % Change of Combing Force (gmf): −84.62%
  % Change of Total Work Done (Joules): −88.76%
